“Also recorded” adds a separate entry of the source.
What was measured:
[1] = test system: Gli pathway; experiment: Gli pathway in HCC (FIG. 13); format: cell-based
[2] = test system: Gli1, Patched-1, Cyclin D1, Bcl-2, and Nanog; experiment: Expression of Gli target genes in breast cancer cells (FIG. 12F); format: cell-based
[3] = test system: Gli reporter; experiment: Gli reporter activity (FIG. 12E); format: cell-based
[4] = test system: human normal pancreatic ductal epithelial (HPNE) cells; experiment: Cell viability of normal pancreatic ductal epithelial cells (FIG. 12C); format: cell-based
[5] = test system: human prostate cancer cells; experiment: Combination cell viability in human prostate cancer cells (FIG. 16); format: cell-based; details: with PF05212384 (PI3K/mTOR dual inhibitor)
[6] = test system: human pancreatic cancer cells; experiment: Cell viability of human pancreatic cancer cells (FIG. 12A, B); format: cell-based
[7] = test system: liver cancer HEPG2 cells; experiment: Apoptosis in liver cancer HEPG2 cells; format: cell-based
[8] = test system: hepatocarcinoma (HCC)/liver cancer cells; experiment: Cell viability of hepatocarcinoma cells (FIG. 13); format: cell-based
[9] = test system: brain cancer stem cells; experiment: Cell viability of brain cancer stem cells (FIG. 15); format: cell-based, human
[10] = test system: pancreatic cancer AsPC-1 cells; experiment: Apoptosis in pancreatic cancer AsPC-1 cells; format: cell-based
[11] = test system: liver cancer xenograft; experiment: Xenografted tumor growth, liver cancer model (FIG. 18); format: in vivo
[12] = test system: pancreatic cancer xenograft; experiment: Xenografted tumor growth, pancreatic cancer model (FIG. 18); format: in vivo
[13] = test system: liver cancer HEP3B cells; experiment: Combination apoptosis in liver cancer HEP3B cells; format: cell-based; details: with PF05212384, listed as SST7
[14] = test system: colorectal cancer HCT116 cells; experiment: Combination apoptosis in colorectal cancer HCT116 cells; format: cell-based; details: with PF05212384, listed as SST7
[15] = test system: human brain cancer cells; experiment: Cell viability of human brain cancer cells (FIG. 15); format: cell-based
[16] = test system: human normal hepatocytes; experiment: Cell viability of normal hepatocytes (FIG. 13); format: cell-based
[17] = test system: breast cancer xenograft; experiment: Xenografted tumor growth, breast cancer model (FIG. 18); format: in vivo
[18] = test system: human normal ductal epithelial (HMEC) cells; experiment: Cell viability of normal ductal epithelial cells (FIG. 12D); format: cell-based
[19] = test system: pancreatic cancer cells; experiment: Combination cell viability in pancreatic cancer cells (FIG. 17); format: cell-based, human
[20] = test system: lung cancer A549 cells; experiment: Apoptosis in lung cancer cells (FIG. 14); format: cell-based
[21] = test system: prostate cancer PC-3 cells; experiment: Apoptosis in prostate cancer cells (FIG. 14); format: cell-based
[22] = test system: prostate cancer xenograft; experiment: Xenografted tumor growth, prostate cancer model (FIG. 18); format: in vivo
[23] = test system: prostate cancer PC-3 cells; experiment: Combination apoptosis in prostate cancer PC-3 cells; format: cell-based; details: with PF05212384
[24] = test system: human breast cancer cells; experiment: Cell viability of human breast cancer cells (FIG. 12D); format: cell-based
[25] = test system: human breast cancer cells; experiment: Combination cell viability in human breast cancer cells (FIG. 17); format: cell-based
[26] = test system: prostate cancer DU145 cells; experiment: Combination apoptosis in prostate cancer DU145 cells; format: cell-based; details: with PF05212384
[27] = with histone deacetylase inhibitor SAHA

## OC(CNc1ccc(Cl)cc1)CNc1ccc(-c2nc3ccccc3o2)cc1 (stereo not shown) [Compound 8, 1-(4-(benzo[d]oxazol-2-yl)phenylamino)-3-(4-chlorophenylamino)propane-2-ol]
[1]
  Gli pathway: inhibits Gli pathway
[2]
  expression of Gli1, Patched-1, Cyclin D1, Bcl-2, and Nanog: inhibits
[3]
  Gli reporter activity: inhibits
[4]
  cell viability: has no effect
[5]
  cell viability, combination: co-operates
[6]
  cell viability: inhibits cell viability
[7]
  apoptosis: induces apoptosis
[8]
  cell viability: inhibits cell viability
[9]
  cell viability: inhibits cell viability
[10]
  apoptosis: induces apoptosis
[11]
  xenografted tumor growth: inhibits xenografted tumor growth
[12]
  xenografted tumor growth: inhibits xenografted tumor growth
[13]
  apoptosis, combination: synergistic; also recorded: act in a cooperative manner to induce apoptosis
[14]
  apoptosis, combination: synergistic; also recorded: act in a cooperative manner to induce apoptosis
[15]
  cell viability: inhibits cell viability
[16]
  cell viability: has no effect
[17]
  xenografted tumor growth: inhibits xenografted tumor growth
[18]
  cell viability: has no effect
[19]; with PF05212384
  cell viability, combination: co-operates
[19]; [27]
  cell viability, combination: co-operates
[20]
  apoptosis: induces apoptosis
[21]
  apoptosis: induces apoptosis
[22]
  xenografted tumor growth: inhibits xenografted tumor growth
[23]
  apoptosis, combination: act in a cooperative manner to induce apoptosis
[24]
  cell viability: inhibits cell viability
[25]; with PF05212384
  cell viability, combination: co-operates
[25]; [27]
  cell viability, combination: co-operates
[26]
  apoptosis, combination: act in a cooperative manner to induce apoptosis
